Data from patent US20130273649A1, “Culture medium for pluripotent stem cells” (UNIVERSITY OF SOUTHERN CALIFORNIA, priority 2012, published 2013).

Key:
Wnt pathway = conditions: relative to IWR-1; cited from earlier work
H9 human ESCs = test: Human ESC self-renewal culture; format: cell-based; conditions: compared to IWR-1, XAV939 and JW55
Description: As human ESCs share defining features with mouse EpiSCs (Hanna et al., 2010; Rossant, 2008; Tesar et al., 2007), we tested whether modulating β-catenin function can also promote human ESC self-renewal. […] Next, we examined the effect of CHIR/XAV and CHIR/IWR-1 on human ESC self-renewal. […] Similar results were obtained in H1 and HES3 human ESCs (data not shown). […] Moreover, human ESCs maintained in CHIR/IWR-1 express pluripotency markers Oct4, Nanog and Sox2 (FIG. 7E), and retain the ability to differentiate into cells of all three germ layers, both in vitro and in vivo (FIGS. 7F and 7G).
(§1) The basal medium for mouse EpiSC culture is the conventional mouse ESC medium, which consists of GMEM (Sigma) supplemented with 10% fetal bovine serum (FBS) (Hyclone), 2 mM L-glutamine (Invitrogen), 1 mM sodium pyruvate (Invitrogen), 1% nonessential amino acids (Invitrogen), and 0.1 mM (3-mercaptoethanol. Mouse EpiSCs were derived and maintained in the basal medium supplemented with FGF2/activin, CHIR/XAV, or CHIR/IWR-1. The basal medium for rat EpiSC culture is N2B27 (Tong et al., 2011), which was prepared by mixing 500 ml of DMEM/F12 (Invitrogen) with 500 ml of Neurobasal™ medium (Invitrogen), and adding 5 ml of N2 (Invitrogen), 10 ml of B27 (Invitrogen), 5 ml of Glutamax™ (Invitrogen), and 1 ml of 0.1 M β-mercaptoethanol (Sigma). The basal medium for human ESC culture consists of Knockout™ DMEM/F12 supplemented with 20% KSR (Invitrogen), 1% nonessential amino acids, 2 mM L-glutamine, and 0.1 mM (3-mercaptoethanol. Human ESCs were cultured in the basal medium supplemented with FGF2, CHIR/XAV, or CHIR/IWR-1.
H1, H9, HES-2 and HES-3 human ESC lines were kindly provided by the University of Southern California Stem Cell Core Facility. Human ESCs were routinely maintained on γ-irradiated MEF feeders in Knockout™ DMEM medium (Invitrogen) supplemented with 20% Knockout™ serum replacement (KSR; Invitrogen), 10 ng/ml FGF2 (PeproTech), 1% nonessential amino acids, 2 mM L-glutamine, and 0.1 mM β-mercaptoethanol. […]

mouse EpiSCs = test: Mouse EpiSC self-renewal culture; format: cell-based; conditions: compared to IWR-1, XAV939 and JW55
Description: We therefore reasoned that if CHIR induces EpiSC differentiation through stabilization of β-catenin, de-stabilization of β-catenin might promote EpiSC self-renewal. We tested this hypothesis by administering the tankyrase inhibitor XAV939 to mouse EpiSC cultures. XAV939-mediated inhibition of tankyrase stabilizes Axin, leading to the formation of the β-catenin destruction complex, composed of GSK3, Axin and adenomatous polyposis coli (APC) (Huang et al., 2009). […] EpiSCs cultured in CHIR/XAV could be routinely passaged by single-cell dissociation and replating onto gelatin-coated dishes, and could be cryo-preserved and recovered at high efficiency by standard techniques.
final concentrations: CHIR99021 (3 μM), PD0325901 (1 μM), XAV939 (Sigma, 2 μM), IWR-1 (Sigma, 2.5 μM), IWP-2 (Stemgent, 2.5 μM), Pyrvinium (Sigma, 100 nM), recombinant human FGF2 (PeproTech, 10 ng/ml), and recombinant human activin A (PeproTech, 10 ng/ml). CHIR99021 and PD0325901 were synthesized in the Division of Signal Transduction Therapy, University of Dundee, UK.
as §1
Post-implantation epiblasts were isolated from mouse or rat embryos and dissociated into small clumps as previously described (Chenoweth and Tesar, 2010). Epiblast fragments were placed into 4-well plates pre-coated with 0.1% gelatin (for mouse epiblasts) or pre-seeded with γ-irradiated mouse embryonic fibroblasts (MEFs) (for rat epiblasts) and cultured in either the FGF2/activin or the CHIR/XAV conditions. Emerging EpiSCs were trypsinized and expanded every 2-3 days at a subculture ratio of 1:4. Animal experiments were performed according to the investigator's protocols approved by the University of Southern California Institutional Animal Care and Use Committee.

O=C1C([C@H]2CC[C@H](C(=O)Nc3cccc4cccnc34)CC2)C(=O)[C@H]2[C@H]3CC[C@H](C3)[C@@H]12 (stereo partly drawn) [53AH, (1R,4r)-4-((2s,3aR,4R,7S,7aS)-1,3-dioxooctahydro-1H-4,7-methanoinden-2-yl)-N-(quinolin-8-yl)cyclohexanecarboxamide]
potency in Wnt inhibition compared to IWR-1 (Wnt pathway): 5 fold | robustness for long-term expansion of human ESCs (H9 human ESCs): more robust for long-term expansion | robustness for long-term expansion of mouse EpiSCs (mouse EpiSCs): more robust for long-term expansion
